# Data published in patent publication US11603372B2, “Compounds and therapeutic uses thereof” (VioGen Biosciences, LLC, priority 2017, dated 2023).
# pKd: −log10 of the molar value.
# Target: PIKfyve (Homo sapiens (Human), UniProt Q9Y2I7)
# Test: Kinase binding assay (kinase-tagged T7 phage, affinity beads, qPCR readout), Kd determination
# Details: 11-point 3-fold compound dilution series
# Experimental: Kinase assays. For most assays, kinase-tagged T7 phage strains were prepared in an E. coli host derived from the BL21 strain. E. coli were grown to log-phase and infected with T7 phage and incubated with shaking at 32° C. until lysis. The lysates were centrifuged and filtered to remove cell debris. The remaining kinases were produced in HEK-293 cells and subsequently tagged with DNA for qPCR detection. Streptavidin-coated magnetic beads were treated with biotinylated small molecule ligands for 30 minutes at room temperature to generate affinity resins for kinase assays. The liganded beads were blocked with excess biotin and washed with blocking buffer (SeaBlock (Pierce), 1% BSA, 0.05% Tween 20, 1 mM DTT) to remove unbound ligand and to reduce non-specific binding. Binding reactions were assembled by combining kinases, liganded affinity beads, and test compounds in 1× binding buffer (20% SeaBlock, 0.17×PBS, 0.05% Tween 20, 6 mM DTT). Test compounds were prepared as 111× stocks in 100% DMSO. Kds were determined using an 11-point 3-fold compound dilution series with three DMSO control points. All compounds for Kd measurements are distributed by acoustic transfer (non-contact dispensing) in 100% DMSO. The compounds were then diluted directly into the assays such that the final concentration of DMSO was 0.9%. All reactions performed in polypropylene 384-well plate. Each was a final volume of 0.02 ml. The assay plates were incubated at room temperature with shaking for 1 hour and the affinity beads were washed with wash buffer (1×PBS, 0.05% Tween 20). The beads were then re-suspended in elution buffer (1×PBS, 0.05% Tween 20, 0.5 μM non-biotinylated affinity ligand) and incubated at room temperature with shaking for 30 minutes. The kinase concentration in the eluates was measured by qPCR.
# An 11-point 3-fold serial dilution of each test compound was prepared in 100% DMSO at 100× final test concentration and subsequently diluted to 1× in the assay (final DMSO concentration=1%). Most Kds were determined using a compound top concentration=30,000 nM. If the initial Kd determined was <0.5 nM (the lowest concentration tested), the measurement was repeated with a serial dilution starting at a lower top concentration.
# Sequence of PIKfyve (Q9Y2I7 whole entry): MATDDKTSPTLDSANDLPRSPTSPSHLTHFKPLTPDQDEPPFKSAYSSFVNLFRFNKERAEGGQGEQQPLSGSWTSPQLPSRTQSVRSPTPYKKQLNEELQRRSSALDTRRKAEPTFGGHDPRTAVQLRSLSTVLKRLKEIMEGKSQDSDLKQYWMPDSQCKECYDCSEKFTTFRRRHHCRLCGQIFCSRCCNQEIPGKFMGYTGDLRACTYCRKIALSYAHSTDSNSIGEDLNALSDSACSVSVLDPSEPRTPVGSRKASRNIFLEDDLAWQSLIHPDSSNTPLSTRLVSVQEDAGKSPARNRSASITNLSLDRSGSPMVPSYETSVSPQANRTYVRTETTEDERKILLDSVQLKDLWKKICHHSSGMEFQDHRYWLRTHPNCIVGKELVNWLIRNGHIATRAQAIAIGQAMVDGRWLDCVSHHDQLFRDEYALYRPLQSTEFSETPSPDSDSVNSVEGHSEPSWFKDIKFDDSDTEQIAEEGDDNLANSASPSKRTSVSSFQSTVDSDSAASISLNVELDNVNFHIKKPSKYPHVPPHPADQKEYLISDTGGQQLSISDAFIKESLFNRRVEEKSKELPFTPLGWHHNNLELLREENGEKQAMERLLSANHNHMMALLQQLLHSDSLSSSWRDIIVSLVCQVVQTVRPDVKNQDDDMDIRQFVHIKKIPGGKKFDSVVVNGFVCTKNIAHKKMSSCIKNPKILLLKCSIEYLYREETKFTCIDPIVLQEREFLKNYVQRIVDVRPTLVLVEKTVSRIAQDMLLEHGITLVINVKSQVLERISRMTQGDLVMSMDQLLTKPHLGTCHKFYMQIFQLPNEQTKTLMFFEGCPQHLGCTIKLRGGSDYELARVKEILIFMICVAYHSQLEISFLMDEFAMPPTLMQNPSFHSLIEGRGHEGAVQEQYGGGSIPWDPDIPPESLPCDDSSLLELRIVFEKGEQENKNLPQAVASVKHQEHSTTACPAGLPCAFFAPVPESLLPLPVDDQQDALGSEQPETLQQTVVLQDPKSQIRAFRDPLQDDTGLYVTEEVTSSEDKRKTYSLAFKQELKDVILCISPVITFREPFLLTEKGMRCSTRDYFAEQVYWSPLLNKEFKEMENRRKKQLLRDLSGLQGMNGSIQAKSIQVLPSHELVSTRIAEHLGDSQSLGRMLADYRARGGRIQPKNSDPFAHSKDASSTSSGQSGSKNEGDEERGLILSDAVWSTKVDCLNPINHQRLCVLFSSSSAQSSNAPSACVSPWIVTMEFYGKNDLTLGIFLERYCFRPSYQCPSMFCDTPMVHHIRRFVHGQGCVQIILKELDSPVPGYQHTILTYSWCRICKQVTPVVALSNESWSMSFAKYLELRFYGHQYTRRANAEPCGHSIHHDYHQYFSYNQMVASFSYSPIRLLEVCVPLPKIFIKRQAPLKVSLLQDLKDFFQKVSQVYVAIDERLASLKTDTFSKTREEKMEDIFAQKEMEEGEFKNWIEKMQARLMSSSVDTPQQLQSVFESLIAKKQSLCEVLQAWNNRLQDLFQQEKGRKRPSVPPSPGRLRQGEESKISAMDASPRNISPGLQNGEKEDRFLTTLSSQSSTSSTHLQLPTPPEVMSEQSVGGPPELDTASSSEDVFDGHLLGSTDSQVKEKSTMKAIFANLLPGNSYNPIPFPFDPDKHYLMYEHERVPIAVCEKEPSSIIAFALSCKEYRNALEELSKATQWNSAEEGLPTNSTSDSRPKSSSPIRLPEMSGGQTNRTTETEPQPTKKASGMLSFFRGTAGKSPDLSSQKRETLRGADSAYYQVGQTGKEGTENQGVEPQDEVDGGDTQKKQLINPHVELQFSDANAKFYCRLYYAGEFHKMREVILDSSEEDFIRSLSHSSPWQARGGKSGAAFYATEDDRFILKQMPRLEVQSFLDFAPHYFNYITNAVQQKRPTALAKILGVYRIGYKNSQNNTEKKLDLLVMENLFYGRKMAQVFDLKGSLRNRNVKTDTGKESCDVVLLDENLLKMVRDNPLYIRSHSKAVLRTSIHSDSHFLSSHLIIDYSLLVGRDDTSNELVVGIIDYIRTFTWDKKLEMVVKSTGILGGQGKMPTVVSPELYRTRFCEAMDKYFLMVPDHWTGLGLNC
row,SMILES,pKd
1,"Cc1cccc(/C=N/Nc2nc(N3CCOCC3)c3sc(-c4ccccc4)cc3n2)c1 [Example 1, 4-morpholino-N-[(E)-m-tolylmethyleneamino]-6-phenyl-thieno[3,2-d]pyrimidin-2-amine]",8.00 to 9.00
2,"Cc1cccc(/C=N/Nc2nc(N3CCOCC3)c3sc(-c4ccncc4)cc3n2)c1 [Example 2, 4-morpholino-N-[(E)-m-tolylmethyleneamino]-6-(4-pyridyl)thieno[3,2-d]pyrimidin-2-amine]",≥ 9.00
3,"Cc1cccc(/C=N/Nc2nc(N3CCOCC3)c3sccc3n2)c1 [Example 3, 4-morpholino-N-[(E)-m-tolylmethyleneamino]thieno[3,2-d]pyrimidin-2-amine]",8.00 to 9.00
4,"Cc1cccc(/C=N/Nc2nc(N3CCOCC3)c3sc(C(=O)Nc4cccnc4)cc3n2)c1 [Example 4, 4-morpholino-2-[(2E)-2-(m-tolylmethylene)hydrazino]-N-(3-pyridyl)thieno[3,2-d]pyrimidine-6-carboxamide]",≥ 9.00
5,"Cc1cccc(/C=N/Nc2nc(N3CCOCC3)c3sc(C(=O)Nc4ccncc4)cc3n2)c1 [Example 5, 4-morpholino-2-[(2E)-2-(m-tolylmethylene)hydrazino]-N-(4-pyridyl)thieno[3,2-d]pyrimidine-6-carboxamide]",8.00 to 9.00
6,"Cc1cccc(/C=N/Nc2nc(N3CCOCC3)c3sc(C(=O)NC4COC4)cc3n2)c1 [Example 7, 4-morpholino-2-[(2E)-2-(m-tolylmethylene)hydrazino]-N-(oxetan-3-yl)thieno[3,2-d]pyrimidine-6-carboxamide]",≥ 9.00
7,"Cc1cccc(/C=N/Nc2nc(N3CCOCC3)c3sc(-c4cnco4)cc3n2)c1 [Example 9, 4-Morpholino-N-[(E)-m-tolylmethyleneamino]-6-oxazol-5-yl-thieno[3,2-d]pyrimidin-2-amine]",8.00 to 9.00
8,"Cc1cccc(/C=N/Nc2nc(N3CCOCC3)c3ccsc3n2)c1 [Example 10, 4-morpholino-N-[(E)-m-tolylmethyleneamino]thieno[2,3-d]pyrimidin-2-amine]",7.22 to 8.00
9,"Cc1cccc(/C=N/Nc2nc(N3CCOCC3)c3cc(-c4ccncc4)sc3n2)c1 [Example 11, 4-morpholino-N-[(E)-m-tolylmethyleneamino]-6-(4-pyridyl)thieno[2,3-d]pyrimidin-2-amine]",8.00 to 9.00
10,"Cc1cccc(/C=N/Nc2nc(N3CCOCC3)c3cc(-c4cnco4)sc3n2)c1 [Example 12, 4-morpholino-N-[(E)-m-tolylmethyleneamino]-6-oxazol-5-yl-thieno[2,3-d]pyrimidin-2-amine]",≥ 9.00
11,"Clc1cccc(/C=N/Nc2nc(N3CCOCC3)c3cc(-c4cnco4)sc3n2)c1 [Example 14, N-[(E)-(3-chlorophenyl)methyleneamino]-4-morpholino-6-oxazol-5-yl-thieno[2,3-d]pyrimidin-2-amine]",7.22 to 8.00
12,"Cc1cccc(/C=N/Nc2nc(N3CCOCC3)c3sc(C(=O)NC4CNC4)cc3n2)c1 [Example 22, N-(azetidin-3-yl)-4-morpholino-2-[(2E)-2-(m-tolylmethylene)hydrazino]thieno[3,2-d]pyrimidine-6-carboxamide]",8.00 to 9.00
13,"Cc1cccc(CCNc2nc(N3CCOCC3)c3sc(-c4ccncc4)cc3n2)c1 [Example 255, 4-morpholino-N-[2-(m-tolyl)ethyl]-6-(4-pyridyl)thieno[3,2-d]pyrimidin-2-amine]",7.22 to 8.00
14,"Cc1cccc(/C=N/Nc2nc(N3CCOCC3)c3sc(-c4cccnc4)cc3n2)c1 [Example 261, 4-morpholino-N-[(E)-m-tolylmethyleneamino]-6-(3-pyridyl)thieno[3,2-d]pyrimidin-2-amine]",≥ 9.00
15,"Cc1cccc(/C=N/Nc2nc(N3CCOCC3)c3sc(-c4cnn(C)c4)cc3n2)c1 [Example 262, 6-(1-methylpyrazol-4-yl)-4-morpholino-N-[(E)-m-tolylmethyleneamino]thieno[3,2-d]pyrimidin-2-amine]",≥ 9.00
16,"Cc1cccc(/C=N/Nc2nc(N3CCOCC3)c3sc(-c4c(C)n[nH]c4C)cc3n2)c1 [Example 263, 6-(3,5-dimethyl-1H-pyrazol-4-yl)-4-morpholino-N-[(E)-m-tolylmethyleneamino]thieno[3,2-d]pyrimidin-2-amine]",≥ 9.00
17,"Cc1cccc(/C=N/Nc2nc(N3CCOCC3)c3sc(-c4c(C)noc4C)cc3n2)c1 [Example 264, 6-(3,5-dimethylisoxazol-4-yl)-4-morpholino-N-[(E)-m-tolylmethyleneamino]thieno[3,2-d]pyrimidin-2-amine]",≥ 9.00
18,"Cc1cccc(/C=N/Nc2nc(N3CCOCC3)c3cc(-c4c(C)noc4C)sc3n2)c1 [Example 267, 6-(3,5-dimethylisoxazol-4-yl)-4-morpholino-N-[(E)-m-tolylmethyleneamino]thieno[2,3-d]pyrimidin-2-amine]",8.00 to 9.00
19,"Cc1cccc(/C=N/Nc2nc(N3CCOCC3)c3cc(-c4c(C)n[nH]c4C)sc3n2)c1 [Example 268, 6-(3,5-dimethyl-1H-pyrazol-4-yl)-4-morpholino-N-[(E)-m-tolylmethyleneamino]thieno[2,3-d]pyrimidin-2-amine]",8.00 to 9.00
